Experimental data taken from patent publication US10174156B2, “Hyperbranched polyester with a hydrophobic nucleus for solubilizing poorly soluble active substances” (BASF SE, priority 2009, dated 2019).

Assay: physchem
Details: pH 7, aqueous buffer, thermodynamic from solid
Description: 2 g of polymer were weighed into a 50 ml beaker. Subsequently, 0.2 g of active ingredient in each case was weighed into the mixture in order to obtain an oversaturated solution. […] The mixture was then stirred at room temperature with the aid of a magnetic stirrer for 72 h. After a rest time of 1 h, excess (i.e. unsolubilized) active ingredient was removed by filtration. The clear or opaque solution thus obtained was subsequently analyzed for its active ingredient content by means of UV spectroscopy or HPLC.

## Clc1ccccc1C(c1ccccc1)(c1ccccc1)n1ccnc1 [Clotrimazole]
  solubility at 72 h: < 100 µg/mL
